In patent publication US10607721B2, “High-throughput, multi-omics approach to determine and validate de novo global mechanisms of action for drugs and toxins” (Vanderbilt University, priority 2015, dated 2020):

Columns and labels:
Type in all cases: cell-based, Human
A549 cells [1] = assay: Multi-omics analysis (transcriptome, proteome, phosphoproteome, metabolome)
Experimental: Samples were analyzed for transcriptome changes by RNA sequencing at the Genomics Services Lab, HudsonAlpha, for proteome changes by label free, SILAC, and phospho-enriched SILAC LC-MS/MS, and metabolome changes by UPLC-IM-MS and data-independent acquisition (MSE) using both hydrophilic-interaction liquid chromatography and reverse phase liquid chromatography.
For proteomic and metabolomic label-free analyses, five sterile indium tin oxide (ITO)-coated glass slides (Delta Technologies) were placed in a tissue culture flask with removable lid (TPP). […] For proteomic analyses, slides were removed and washed 3 times with PBS, placed on dry ice, flash-frozen in liquid nitrogen, and stored at −80° C. prior to lysis. For metabolomics analysis, slides were washed in 50 mM ammonium formate.
For SILAC experiments, A549 cells were cultured in SILAC media for two weeks to ensure isotopic amino acid incorporation (verified by proteomic analysis). […] Following treatment cells were washed 3 times with 4° C. PBS. For phospho-SILAC, cells were washed with 4° C. PBS containing 1 mM sodium orthovanadate.
RNA was isolated using the RNeasy Mini Kit (Qiagen). For each time point, untreated and cisplatin-treated samples were isolated in triplicate and analyzed by the Genomics Services Lab at HudsonAlpha. RNAseq was performed using poly(A) selection on an Illumina HiSeq v4 sequencing platform. Reads were paired-end with a read length of 50 bp and 50 million reads per sample.
Cells were scraped from slides and lysed in 300 μL of 50 mM Tris pH 8, 150 mM NaCl, 1% Nonidet 40, 1 mM EDTA with added HALT Protease Inhibitor Cocktail (Thermo Scientific), centrifuged, and assayed for protein concentration (BCA Protein Assay, Thermo Scientific Pierce) using a SpectraMax M2e Microplate Reader with SoftMax Pro software version 5 (Molecular Devices). Aliquots of 100 μg of protein were acetone precipitated in six times the volume for 2 h at −80° C. Precipitates were washed three times with cold acetone and reconstituted in 10 μL of neat trifluoroethanol (TFE) and 10 μL of 100 mM Tris (pH 8.0). Samples were reduced with 1 μL of 0.5 M Tris(2-carboxyethyl)phosphine hydrochloride (TCEP) for 30 minutes at room temperature and alkylated with 2 μL of 0.5 M IAA for 30 minutes at room temperature in the dark. Samples were diluted with 100 mM Tris (pH 8.0) to obtain a final solution containing 10% TFE. The samples were digested with 2 μg of trypsin (a ratio of 50:1 protein 273 to enzyme) overnight at 37° C. A solution of 60% formic acid (FA) was added to the samples until they reached pH 3. Aliquots of 5 μg of digested sample were desalted using C18 spin tips (Protea) according to the supplied protocol and dried samples were reconstituted in 15 μL of 0.1% FA. Five replicates of cisplatin treated and control (untreated) cells were prepared in parallel.
Samples were analyzed on a Thermo Scientific Orbitrap Fusion Tribrid mass spectrometer in line with a Thermo Scientific Easy-nLC 1000 UHPLC system. Samples, 2 μL, were injected via the autosampler and loaded onto a Thermo Scientific Acclaim PepMap 100 C18 UHPLC column (75 μm×250 mm, 2 μm particle size, 100 Å pore size), with 0.1% FA in water (mobile phase A). Peptides were separated over a 140 minute two-step gradient with initial conditions set to 100% mobile phase A for 5 minutes before ramping to 20% mobile phase B, 0.1% FA in ACN, over 100 minutes and then 32% mobile phase B over 20 minutes. The remainder of the gradient was spent washing at 95% mobile phase B and returning to initial conditions. Eluted peptides were ionized via positive mode nanoelectrospray ionization (nESI) using a Nanospray Flex ion source (Thermo Fisher Scientific). The mass spectrometer was operated using a 3 second top speed data-dependent acquisition mode. Fourier transform mas spectra (FTMS) were collected using 120,000 resolving power, an automated gain control (AGC) target of 200,000, and a maximum injection time of 50 ms. […]

A549 cells [2] = assay: Molecular screening assay (MALDI FTICR MS, molecular variance score)
Experimental: After incubation for the respective times, wells were washed 3 times with PBS and stored at −80° C. The effect of different toxin dosage amounts and exposure times on the molecular content of a sample may be evaluated and reported directly for thousands of molecular species based upon the mass spectra that were collected for each of the samples. A comparison of the mass-to-charge (m/z) peak content between spectra from dosed cells and a reference spectrum from a non-dosed control sample delivers a mass spectrometric assessment of toxicity-induced molecular variation. However, seeking a data-driven global comparison instead of focusing on specific molecular species of interest makes the assessment of molecular change between the different experimental conditions very complex and high-dimensional. To determine which dosage amount induces the greatest molecular change, the inventors developed a quick and broad assessment of toxicity-induced molecular variance summarizing the entire recorded mass range. […]
Within each time point (represented by a 24-well plate), seven different dosage conditions were measured: six different toxin dosages and one reference condition (e.g., untreated). Per dosage condition there were nine distinct replicate measurements made: each dosage condition was represented by three replicate wells, from which three technical replicate spectra were measured per well. […]

A549 cells [3] = assay: Apoptosis assay (ApoONE, caspase 3/7 activation); conditions: 50 μM cisplatin
Experimental: Cell viability and apoptosis were assessed by CellTiter Glo (Promega) and ApoONE (Promega) kits, respectively. Molecular changes were screened using a MALDI-FTICR MS platform.
Human lung carcinoma A549 cells were obtained from ATCC (Manassas, Va.) and cultured in Dulbecco's Modified Eagle's Medium (DMEM, Gibco) with 10% v/v heat-inactivated fetal bovine serum (Atlanta Biologicals) and 1% v/v penicillin/streptomycin (P/S) (Gibco) at 37° C. with 5% CO2 atmosphere. Stable isotope labeling by amino acids in cell culture (SILAC) media were prepared using SILAC DMEM (Thermo Scientific) containing 10% v/v dialyzed heat-inactivated FBS (Fisher), 1% v/v P/S, proline (250 mg/L) (Thermo Scientific), and appropriate light and heavy labeled arginine (84 mg/L), lysine (146 mg/L). […]
At each time point, cell viability and apoptosis were assessed by CellTiter-Glo (Promega) and ApoONE (Promega) kits, respectively. Plates were incubated at 37° C. in a plate reader (BioTek) with data 174 acquisition every 10 min by luminescence (1 s read time, 200 gain) and fluorescence (485 nm excitation, 528 nm emission). […] Cell viability was also assessed using the LIVE/DEAD Viability/Cytotoxicity Kit for mammalian cells (ThermoFisher). […]

[4] = 50 μM cisplatin for 1, 6, 24 and 48 h

**Q.** Which results are given for `N.N.[Cl][Pt][Cl]` [cisplatin]?
**A.** BAD phosphorylation (pSer75 at 48 h; pSer118 at 24 h and 48 h) (A549 cells [1]; 50 μM cisplatin): increased; share of unique detected species significantly changed (A549 cells [1]; [4]): 24%; unique species significantly changed (A549 cells [1]; [4]): 13,483; phosphorylated ERK1 and/or ERK2 (pThr202/pTyr204; pThr185/pTyr187) (A549 cells [1]; 50 μM cisplatin, 1, 6, 24, 48 h): increased at each time point; ATP1A1 peptides (A549 cells [1]; 50 μM cisplatin, 6 and 24 h): decreased significantly; CUL4B C-terminal peptide (A549 cells [1]; 50 μM cisplatin, 1 h): increased; Ncx1 transcript (A549 cells [1]; 50 μM cisplatin, 6 h): significant decrease; BAK1 (A549 cells [1]; 50 μM cisplatin, 24 h): increased; CASP9 transcript (A549 cells [1]; 50 μM cisplatin, 24 h): downregulation; phosphorylated mTOR at pS1166 (A549 cells [1]; 50 μM cisplatin, 24 h): increased; HUWE1 abundance (A549 cells [1]; 50 μM cisplatin, 48 h): decreased; p53 pSer392 (A549 cells [1]; 50 μM cisplatin, beginning at 24 h): increased significantly; p53 pSer313, pSer314 and/or pSer315 (A549 cells [1]; 50 μM cisplatin, starting at 6 h): increased significantly; estrogen species (E1, E2) (A549 cells [1]; 50 μM cisplatin, E1 up at 1 h, E1 and E2 up at 6 h, decreased by 24 h): transiently increased; BAX, CYCS, APAF1 and CASP3 transcripts (A549 cells [1]; 50 μM cisplatin, no proteomic abundance changes): transcriptional upregulation; earliest time at which cisplatin-induced toxicity is measurable (A549 cells [2]; 50 μM): ≤ 1 h; optimal dose (maximum response in physiological and molecular screen, cell viability >50%) (A549 cells [2]; exposure 1 and 6 h molecular screen, 24 h caspase assay): 50 μM; caspase activation over time (A549 cells [3]): ceased after 48 h; time of maximal caspase activation (A549 cells [3]): 24 h
